Results taken from US20090104633A1, “Kit for Highly Sensitive Detection Assays” (priority 2005, published 2009).

Assays:
streptavidin-HRP = biological target: T1, streptavidin-HRP (Streptomyces avidinii, UniProt P22629); experiment: Detection of active ester-labelled insulin on PVDF filterplates (HRP/TMB); type: binding; conditions: for Detection limit of labelled protein: insulin conjugate on PVDF, mean ± SEM; for Detection limit of label: insulin conjugate, converted from pg protein with labelling degree (Table 6)
T1 construct: purchased Vector Labs, Burlingame, Calif., USA
Procedure: (§1) Stock solutions of active esters of the labelling compounds summarized in Table 2 (4.2-9.2 mg/ml, 14 mM) as well as labelling compounds (7a), (7b) and (7c) (approximately 15 mM) were prepared freshly in anhydrous dimethylsulfoxide (DMSO) for each labelling experiment. Likewise, a stock solution of insulin (200 μg/ml, 35 μM; bovine insulin, MW 5733,49; Sigma-Aldrich, Taufkirchen, FRG) in 50 mM phosphate buffer, pH 7.2, 0.02 mM ethylenediaminetetraacetic acid (EDTA) (PBS/EDTA) was prepared. For labelling, insulin (35 nMoles, representing 105 nMoles amino functions (2 NH2-termini (chain A and B), 1 lysine side chain)) was reacted with active esters (350 nMoles) in a final volume of 1.25 ml PBS/EDTA, containing no more than 2% (v/v) DMSO in any experiment. The solutions were mixed on an end-to-end mixer for 90 min at RT and the labelling reactions were terminated by addition of glycine (1 mMole) in PBS/EDTA. Mixing was continued for 60 min at RT before the solution was dialyzed against PBS/EDTA (MWCO 2,000). After another dialysis against water, the heterogeneity of the samples and the molecular masses of the products were determined in MALDI-TOF-MS analyses (Bruker-Reflex II instrument; Bruker-Daltonik, Bremen, FRG). The mean labelling degree was calculated as described elsewhere (Olivier V, Meisen I, Meckelein B, Hirst T R, Peter-Katalinic J, Schmidt M A, Frey A (2003). Influence of targeting ligand flexibility on receptor binding of particulate drug delivery systems. Bioconjug Chem. 14:1203-8.) (Table 6).
The concentrations of the labelled polypeptides were determined by standard assays and serial dilutions of the solutions were prepared in PBS/EDTA. Equal amounts of the diluted solutions (1,000-0.12 ng conjugate/well, each in 50 μl PBS/EDTA) were applied onto 96-well polystyrene filterplates equipped with polyvinylidene fluoride (PVDF) membrane bottoms (Corning, Corning, N.Y., USA), which had been pre-activated with 70% (v/v) ethanol and washed with phosphate buffer. The plates were incubated for 30 min at room temperature before the solutions were sucked through the membranes with a MultiScreen vacuum manifold (Millipore, Schwalbach, FRG). […] Nonspecific binding sites were blocked with 200 μl/well 2% (w/v) caseinate in D-PBS (Caseinate-PBS) for 30 min at RT and the solutions were removed. […] After the plates were washed another 6× with PBST with the vacuum manifold and 6× with D-PBS with the plate washer, color was developed at room temperature in the dark with 75 μl/well of a highly sensitive tetramethylbenzidine-based substrate reagent (1 mM 3,3′,5,5′-tetramethylbenzidine, 3 mM H2O2 in 200 mM potassium citrate, pH 4.0; (Frey A, Meckelein B, Externest D, Schmidt M A (2000). A stable and highly sensitive 3,3′,5,5′-tetramethylbenzidine-based substrate reagent for enzyme-linked immunosorbent assays. J Immunol Methods. 233:47-56.)). The reaction was terminated after 30 min with 125 μl/well 1 M sulfuric acid.

[1] = biological target: T2, Streptavidin AlexaFluor680 (Streptomyces avidinii, UniProt P22629); experiment: Dot blot detection of active ester-labelled ovalbumin on nitrocellulose; type: binding; design: purchased Invitrogen; conditions: ovalbumin conjugate, mean ± SEM
Procedure: Stock solutions of 65-100 mg/ml (120-330 mM) active ester of the labelling compounds (Table 2) were prepared freshly in anhydrous dimethylsulfoxide (DMSO) for each labelling experiment. […] For labelling 100 nMoles ovalbumin (representing 2 μMoles amino functions) were reacted with 1.5 μMoles of active ester in a final volume of 300 μl 100 mM sodium tetraborate, pH 8.2, containing no more than 5% (v/v) DMSO in any experiment. The solutions were mixed on an end-to-end mixer for 180 min at RT and the labelling reactions were terminated by addition of 1.5 mmoles glycine in sodium tetraborate buffer. Mixing was continued overnight at 4° C. before the solutions were dialyzed against sodium tetraborate buffer. The concentrations of the labelled protein were determined by standard assays and serial dilutions of the stock solutions were prepared.

insulin = biological target: T3, insulin (Bos taurus, UniProt P01317); experiment: Mean degree of derivatization of insulin with active esters (MALDI-TOF-MS); design: species or system bovine; conditions: 35 nMoles insulin reacted with 350 nMoles active ester, pH 7.2, 90 min RT; three independent experiments
T3 construct: 2 NH2-termini (chain A and B), 1 lysine side chain; purchased Sigma-Aldrich, Taufkirchen, FRG
Procedure: as §1

[2] = Hydrolysis half-lifes of active ester derivatives by 1H-NMR; type: physicochemical; conditions: 50 mM deuterated phosphate buffer, pD 7.2, room temperature, 1 mM active ester
Procedure: The hydrolysis half-lifes of active ester derivatives in physiological buffer were determined by ^1H-NMR spectroscopy. For this purpose a 50 mM phosphate buffer in deuterium oxide (D2O, […]) (deutero, Kastellaun, FRG), pD 7.2, was prepared. The phosphate salts were lyophilized thrice from fresh deuterium oxide. Finally, fresh D2O was added and the pD value was verified. […] To initiate the hydrolysis reaction 10 μl of these solutions were added to 490 μl of 50 mM deuterated phosphate-buffer, pD 7.2, spiked with 3-(trimethylsilyl)-1-propanesulfonic acid-D6 sodium salt (TMSPS) (Merck, Darmstadt, FRG) (0.1 mg/ml) as internal reference, resulting in a final concentration of active ester derivatives of 1 mM. The hydrolysis of the active esters was monitored at room temperature by ^1H-NMR spectroscopy with an Avance DRX-600 system (Bruker BioSpin, Rheinstetten, FRG) at 600 MHz. The first ^1H-spectrum was recorded 6-12 min after addition of the phosphate buffer, additional spectra were recorded at about 20, 40, 60, 120, 240, 360 and 1000-1600 min (over night). After the last measurement the pD-value was verified again. The hydrolysis reaction of each active ester derivative was measured in 2-3 independent experiments.
The Bruker software X-WIN-NMR (V 2.5; Bruker BioSpin) was used to acquire and process the data recorded at different time points. For this purpose, signals which were altered in intensity or chemical shift due to deuterolysis and which were not superimposed by signals of other nuclei were integrated and put in relation to the internal standard TMSPS. The concentration of the non-hydrolyzed active ester derivatives was calculated from the change of peak integrals and was plotted versus time.

[3] = biological target: T2, Streptavidin AlexaFluor680; experiment: Dot blot detection of hydrazide-labelled glycoprotein (porcine mucin) on nitrocellulose; conditions: periodate-oxidized mucin, mean ± SEM
Procedure: All subsequent treatments of the membranes were carried out in tight fitting trays. For oxidation or the carbohydrate moieties of the glycoprotein the membranes were incubated for 20 min at RT in 3 ml (0.21 ml/cm^2 membrane) 10 mM sodium m-periodate (Sigma-Aldrich, Taufkirchen, FRG) in 100 mM sodium acetate buffer (pH 5). They were washed another 3× in D-PBS, incubated each for 60 min at RT with 3 ml (0.21 ml/cm^2 membrane) of 2.5 μM labelling-hydrazide (Table 4) in 100 mM sodium acetate buffer (pH 5), washed again 3× in D-PBS and blocked with 1% (w/v) Casein (Hammarsten grade, BDH, Poole, UK) in D-PBS (Casein-PBS) for 30 min at RT. Blocked membranes were incubated for 90 min at RT with 4 ml (0.28 ml/cm^2 membrane) diluted monoclonal antibodies against 2,4-dichlorophenoxyacetic acid or monoclonal antibodies against DIG or with AlexaFluor680-labelled streptavidin (for working concentrations see Table 3) in Casein-PBS and washed 3× with D-PBS. […] After intense washing with D-PBS fluorescence was read out on a fluorescence imager (Odyssey Infrared Imager, LI-COR Biosciences, Lincoln, Nebr., USA) and quantitated with an appropriate image analysis software (Odyssey Software v.1.2). Statistical analysis of the data was carried out with the GraphPad Prism Suite (v.4.0.0, GraphPad Software, San Diego, Calif., USA).

T3 sequence (P01317 25-54 limits assumed): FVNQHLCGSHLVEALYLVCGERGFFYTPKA
T3 sequence (P01317 85-105 limits assumed): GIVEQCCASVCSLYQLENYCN
T2 sequence (P22629 25-183): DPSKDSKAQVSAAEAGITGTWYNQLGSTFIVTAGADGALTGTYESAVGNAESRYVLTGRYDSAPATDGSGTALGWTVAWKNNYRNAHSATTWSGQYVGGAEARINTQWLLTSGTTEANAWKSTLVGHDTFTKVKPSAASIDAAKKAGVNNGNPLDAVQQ
T1 sequence (P22629 25-183): as above

Row | Compound | Detection limit of labelled protein (streptavidin-HRP) | Detection limit of label (streptavidin-HRP) | Detection limit of proteins after labelling with active ester derivatives [1] [pg] | Mean labelling degree (insulin) | Hydrolysis half-life [2] | Detection limit of proteins after labelling with hydrazide derivatives [3]
1 | O=C(CCCC[C@@H]1SC[C@@H]2NC(=O)N[C@@H]21)NCCCCCC(=O)ON1C(=O)CC(S(=O)(=O)[O-])C1=O.[Na+] (stereo partly drawn) [Sulfo-NHS-LC-biotin, Sulfo-LC-(+)-Biotin] | 33,854.2 ± 6,107.3 pg | 10,156.0 ± 1,832.1 fMole | 248.0 ± 66.6 | 1.72 Mole label: Mole insulin | 101 min | 
2 | C[C@]12CC[C@H](OCC(=O)NCCCCCC(=O)ON3C(=O)CCC3=O)C[C@H]1CC[C@@H]1[C@@H]2C[C@@H](O)[C@]2(C)[C@@H](C3=CC(=O)OC3)CC[C@]12O [DIG-C6-NHS, Digoxigenin-3-O-methylcarbonyl-ε-aminocaproyl-N-hydroxysuccinimide] |  |  |  | 1.50 Mole label: Mole insulin | 248^(*^) min | 
3 | O=C(COc1ccc(Cl)cc1Cl)NCCCCCCCCCCC(=O)ON1C(=O)CC(S(=O)(=O)[O-])C1=O.[Na+] (centres unmarked) [(3d), 11-(2-(2,4-dichlorophenoxy)acetylamino)-undecanoic acid-N-hydroxysulfosuccinimidyl-ester-sodium Salt] |  |  |  | 0.38 Mole label: Mole insulin |  | 
4 | SLC-(+)-Biotinoylhydrazide [Biotin-C11 hydrazide] |  |  |  |  |  | 114.6 ± 10.4^ pg
5 | O=C(COc1ccc(Cl)cc1Cl)NCCCCCC(=O)ON1C(=O)CC(S(=O)(=O)[O-])C1=O.[Na+] (centres unmarked) [(3b), 6-(2-(2,4-dichlorophenoxy)acetylamino)-hexanoic acid-N-hydroxysulfosuccinimidyl-ester-sodium Salt] |  |  |  | 1.61 Mole label: Mole insulin | 231^(*^) min | 
6 | O=C(COc1ccc(Cl)cc1Cl)ON1C(=O)CCC1=O [(1b)] |  |  |  | 0.52 Mole label: Mole insulin | 25 min | 
7 | O=C(CCCCCNC(=O)CCCC[C@@H]1SC[C@@H]2NC(=O)N[C@@H]21)NCCCCCC(=O)ON1C(=O)CCC1=O [NHS-SLC-biotin, SLC-NHS-(+)-Biotin] | 1,277,778.0 ± 237,333.4 pg | 17,829.0 ± 3,311.5 fMole | 39063.0 ± 5508.0 | 0.08 Mole label: Mole insulin |  | 
8 | O=C1N[C@H]2[C@H](CS[C@H]2CCCCC(=O)ON2C(=O)CC(S(=O)(=O)[O-])C2=O)N1.[Na+] (stereo partly drawn) [Sulfo-NHS-biotin, Sulfo-Succinimidyl-(+)-biotin] | 62,500.0 ± 15,343.4 pg | 19,512.6 ± 4,790.2 fMole | 246.5 ± 67.2 | 1.79 Mole label: Mole insulin | 62 min | 
9 | NNC(=O)CCCCCNC(=O)CCCC[C@@H]1SC[C@@H]2NC(=O)N[C@@H]21 [Biotin-C6 hydrazide, LC-(+)-Biotinoylhydrazide] |  |  |  |  |  | 49.1 ± 6.3^ pg
